# How the values were obtained:
# [1] = test system: Escherichia coli; assay: Antibacterial activity against Escherichia coli ATCC BAA-2340 assessed as inhibition in bacterial growth incubated for 20 to 24 hrs by CLSI based broth microdilution method; type: functional; conditions: Escherichia coli, ATCC BAA-2340, time 20-24 hrs; read-out: MIC
# [2] = test system: Escherichia coli; assay: Antibacterial activity against Escherichia coli ATCC 25922 assessed as inhibition in bacterial growth incubated for 20 to 24 hrs by CLSI based broth microdilution method; type: functional; conditions: time 20-24 hrs
# [3] = test system: Staphylococcus aureus; assay: Antibacterial activity against Staphylococcus aureus ATCC BAA-1556 assessed as inhibition in bacterial growth incubated for 20 to 24 hrs by CLSI based broth microdilution method; type: functional; conditions: Staphylococcus aureus, ATCC BAA-1556, time 20-24 hrs; read-out: MIC
# [4] = test system: Klebsiella pneumoniae; assay: Antibacterial activity against Klebsiella pneumoniae ATCC 700603 assessed as inhibition in bacterial growth incubated for 20 to 24 hrs by CLSI based broth microdilution method; type: functional; conditions: Klebsiella pneumoniae, ATCC 700603, time 20-24 hrs; read-out: MIC
# [5] = test system: Klebsiella pneumoniae; assay: Antibacterial activity against Klebsiella pneumoniae ATCC 10031 assessed as inhibition in bacterial growth incubated for 20 to 24 hrs by CLSI based broth microdilution method; type: functional; conditions: time 20-24 hrs
# [6] = test system: Acinetobacter baumannii; assay: Antibacterial activity against Acinetobacter baumannii ATCC BAA-747 assessed as inhibition in bacterial growth incubated for 20 to 24 hrs by CLSI based broth microdilution method; type: functional; conditions: Acinetobacter baumannii, ATCC BAA-747, time 20-24 hrs; read-out: MIC
# [7] = biological target: T1, hERG (KCNH2) (Homo sapiens, UniProt Q12809); assay: Inhibition of hERG potassium channel expressed in CHO cells at 1 uM by electrophysiological patch clamp assay relative to control; type: toxicity, cell-based; conditions: CHO cells expressing hERG
# T1 sequence (Q12809 whole entry): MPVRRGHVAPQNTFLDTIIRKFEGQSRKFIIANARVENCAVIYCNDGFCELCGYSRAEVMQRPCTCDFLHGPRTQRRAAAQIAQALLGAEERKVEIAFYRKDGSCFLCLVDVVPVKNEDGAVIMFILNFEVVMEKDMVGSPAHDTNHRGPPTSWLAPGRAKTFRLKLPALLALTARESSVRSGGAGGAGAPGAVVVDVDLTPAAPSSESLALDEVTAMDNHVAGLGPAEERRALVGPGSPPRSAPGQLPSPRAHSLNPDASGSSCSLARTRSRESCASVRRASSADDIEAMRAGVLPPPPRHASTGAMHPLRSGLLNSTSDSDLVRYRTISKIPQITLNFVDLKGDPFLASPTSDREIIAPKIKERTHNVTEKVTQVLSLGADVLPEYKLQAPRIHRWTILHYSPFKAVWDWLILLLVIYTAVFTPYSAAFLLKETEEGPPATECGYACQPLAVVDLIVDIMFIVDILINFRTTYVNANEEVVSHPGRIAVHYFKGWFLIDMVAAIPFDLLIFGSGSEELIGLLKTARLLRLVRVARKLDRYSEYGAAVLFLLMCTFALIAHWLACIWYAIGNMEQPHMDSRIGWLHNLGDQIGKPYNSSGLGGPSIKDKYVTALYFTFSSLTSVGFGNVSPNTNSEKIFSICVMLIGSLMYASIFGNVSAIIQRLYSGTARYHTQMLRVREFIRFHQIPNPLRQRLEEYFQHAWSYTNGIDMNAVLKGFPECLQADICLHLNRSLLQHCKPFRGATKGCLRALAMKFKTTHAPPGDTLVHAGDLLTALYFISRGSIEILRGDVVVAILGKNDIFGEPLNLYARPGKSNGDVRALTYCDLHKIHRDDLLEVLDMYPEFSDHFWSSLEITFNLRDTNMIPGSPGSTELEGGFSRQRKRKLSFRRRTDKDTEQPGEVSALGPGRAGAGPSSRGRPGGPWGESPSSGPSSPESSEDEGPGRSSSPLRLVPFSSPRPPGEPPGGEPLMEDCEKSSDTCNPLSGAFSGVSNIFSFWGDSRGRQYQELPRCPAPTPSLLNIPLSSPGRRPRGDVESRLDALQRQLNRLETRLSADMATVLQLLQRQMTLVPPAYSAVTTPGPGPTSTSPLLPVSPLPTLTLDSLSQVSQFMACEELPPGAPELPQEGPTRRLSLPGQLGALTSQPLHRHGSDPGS
# [8] = test system: Pseudomonas aeruginosa; assay: Antibacterial activity against Pseudomonas aeruginosa ATCC 27853 assessed as inhibition in bacterial growth incubated for 20 to 24 hrs by CLSI based broth microdilution method; type: functional; conditions: time 20-24 hrs
# [9] = biological target: T1, hERG (KCNH2); assay: Inhibition of hERG potassium channel expressed in CHO cells at 10 uM by electrophysiological patch clamp assay relative to control; type: toxicity, cell-based; conditions: CHO cells expressing hERG
# [10] = test system: Klebsiella pneumoniae; assay: Antibacterial activity against Klebsiella pneumoniae ATCC BAA-1705 assessed as inhibition in bacterial growth incubated for 20 to 24 hrs by CLSI based broth microdilution method; type: functional; conditions: time 20-24 hrs
# [11] = test system: Pseudomonas aeruginosa; assay: Antibacterial activity against Pseudomonas aeruginosa NCTC 13437 assessed as inhibition in bacterial growth incubated for 20 to 24 hrs by CLSI based broth microdilution method; type: functional; conditions: Pseudomonas aeruginosa, NCTC 13437, time 20-24 hrs; read-out: MIC
# [12] = test system: Escherichia coli; assay: Antibacterial activity against Escherichia coli K-12 BW25113 assessed as inhibition in bacterial growth incubated for 20 to 24 hrs by CLSI based broth microdilution method; type: functional; conditions: Escherichia coli, K-12 BW25113, time 20-24 hrs; read-out: MIC
# [13] = test system: Staphylococcus aureus; assay: Antibacterial activity against Staphylococcus aureus ATCC 29213 assessed as inhibition in bacterial growth incubated for 20 to 24 hrs by CLSI based broth microdilution method; type: functional; conditions: Staphylococcus aureus, ATCC 29213; time 20-24 hrs; read-out: MIC
# [14] = test system: Escherichia coli; assay: Antibacterial activity against Escherichia coli ATCC 35218 assessed as inhibition in bacterial growth incubated for 20 to 24 hrs by CLSI based broth microdilution method; type: functional; conditions: Escherichia coli, ATCC 35218, time 20-24 hrs; read-out: MIC
# [15] = test system: Escherichia coli; assay: Antibacterial activity against Escherichia coli K-12 BW25113 deltaTolC assessed as inhibition in bacterial growth incubated for 20 to 24 hrs by CLSI based broth microdilution method; type: functional; conditions: time 20-24 hrs
# [16] = Inhibition of Escherichia coli topoisomerase 4 incubated for 120 mins by Transcreener ADP2 FI assay
# [17] = test system: Acinetobacter baumannii; assay: Antibacterial activity against Acinetobacter baumannii ATCC 51432 assessed as inhibition in bacterial growth incubated for 20 to 24 hrs by CLSI based broth microdilution method; type: functional; conditions: Acinetobacter baumannii, ATCC 51432, time 20-24 hrs; read-out: MIC
# [18] = test system: Pseudomonas aeruginosa; assay: Antibacterial activity against Pseudomonas aeruginosa NCTC 11451 assessed as inhibition in bacterial growth incubated for 20 to 24 hrs by CLSI based broth microdilution method; type: functional; conditions: Pseudomonas aeruginosa, NCTC 11451, time 20-24 hrs; read-out: MIC
# [19] = biological target: Voltage-gated inwardly rectifying potassium channel KCNH2 (Homo sapiens, UniProt Q12809); assay: (§1) Inhibition of hERG potassium channel expressed in CHO cells by electrophysiological patch clamp assay; type: toxicity, cell-based
# Chain of Voltage-gated inwardly rectifying potassium channel KCNH2 (Q12809 whole entry): as above
# [20] = biological target: T1, hERG (KCNH2); assay: as §1; type: toxicity, cell-based; conditions: human, CHO cells expressing hERG
# [21] = test system: Klebsiella pneumoniae; assay: Antibacterial activity against Klebsiella pneumoniae ATCC BAA-2146 assessed as inhibition in bacterial growth incubated for 20 to 24 hrs by CLSI based broth microdilution method; type: functional; conditions: Klebsiella pneumoniae, ATCC BAA-2146, time 20-24 hrs; read-out: MIC
# [22] = biological target: DNA gyrase (Escherichia coli, UniProt P0AES4+P0AES6); assay: Inhibition of Escherichia coli DNA gyrase incubated for 80 mins by Transcreener ADP2 FI assay; type: protein-complex assay
# [23] = test system: Acinetobacter baumannii; assay: Antibacterial activity against Acinetobacter baumannii ATCC 19606 assessed as inhibition in bacterial growth incubated for 20 to 24 hrs by CLSI based broth microdilution method; type: functional; conditions: time 20-24 hrs
smiles,measurement,setting,value
N#Cc1cc(OCCN)cc2c1CC(CNCCC1CN(c3ccc4c(n3)NC(=O)CO4)C(=O)O1)C2 (stereo unspecified),MIC,[1],0.25 µg/mL
same,MIC,[2],0.25 µg/mL
same,MIC,[3],1 µg/mL
same,MIC,[4],2 µg/mL
same,MIC,[5],≤ 0.06 µg/mL
same,MIC,[6],1 µg/mL
same,inhibition at 1 µM,[7],< 1%
same,MIC,[8],0.125 µg/mL
same,inhibition at 10 µM,[9],< 1%
same,MIC,[10],2 µg/mL
same,MIC,[11],0.5 µg/mL
same,MIC,[12],0.125 µg/mL
same,MIC,[13],0.5 µg/mL
same,MIC,[14],0.25 µg/mL
same,MIC,[15],≤ 0.06 µg/mL
same,IC50,[16],6 nM
same,MIC,[17],16 µg/mL
same,MIC,[18],1 µg/mL
same,IC50,[19],> 20000 nM
same,IC20,[20],> 10000 nM
same,MIC,[21],4 µg/mL
same,IC50,[22],17 nM
same,MIC,[23],16 µg/mL
N#Cc1cccc2c1CC(CNCCC1CN(c3ccc4c(n3)NC(=O)CO4)C(=O)O1)C2 (stereo unspecified),MIC,[1],≤ 0.06 µg/mL
same,MIC,[2],≤ 0.06 µg/mL
same,MIC,[3],≤ 0.06 µg/mL
same,MIC,[4],1 µg/mL
same,MIC,[5],≤ 0.06 µg/mL
same,MIC,[6],≤ 0.06 µg/mL
same,inhibition at 1 µM,[7],55%
same,MIC,[8],0.5 µg/mL
same,inhibition at 10 µM,[9],99%
same,MIC,[10],1 µg/mL
same,MIC,[11],0.5 µg/mL
same,MIC,[12],≤ 0.06 µg/mL
same,MIC,[13],≤ 0.06 µg/mL
same,MIC,[14],0.125 µg/mL
same,MIC,[15],≤ 0.06 µg/mL
same,IC50,[16],4 nM
same,MIC,[17],≤ 0.06 µg/mL
same,MIC,[18],1 µg/mL
same,IC20,[20],450 nM
same,MIC,[21],4 µg/mL
same,MIC,[23],0.125 µg/mL
CS(=O)(=O)NCCOc1cc(C#N)c2c(c1)CC(CNCCC1CN(c3ccc4c(n3)NC(=O)CO4)C(=O)O1)C2 (stereo unspecified),MIC,[1],2 µg/mL
same,MIC,[2],1 µg/mL
same,MIC,[3],0.5 µg/mL
same,MIC,[4],16 µg/mL
same,MIC,[5],≤ 0.06 µg/mL
same,MIC,[6],2 µg/mL
same,inhibition at 1 µM,[7],< 1%
same,MIC,[8],1 µg/mL
same,inhibition at 10 µM,[9],30%
same,MIC,[10],16 µg/mL
same,MIC,[11],4 µg/mL
same,MIC,[12],0.5 µg/mL
same,MIC,[13],0.25 µg/mL
same,MIC,[14],1 µg/mL
same,MIC,[15],≤ 0.06 µg/mL
same,IC50,[16],32 nM
same,MIC,[17],4 µg/mL
same,MIC,[18],4 µg/mL
same,IC50,[19],> 20000 nM
same,IC20,[20],5900 nM
same,MIC,[21],16 µg/mL
same,IC50,[22],26 nM
same,MIC,[23],4 µg/mL
NC1(COc2cc(F)c3c(c2)CC(CNCCC2CN(c4ccc5c(n4)NC(=O)CO5)C(=O)O2)C3)CC1 (stereo unspecified),MIC,[1],0.25 µg/mL
same,MIC,[2],0.125 µg/mL
same,MIC,[3],0.125 µg/mL
same,MIC,[4],2 µg/mL
same,MIC,[5],≤ 0.06 µg/mL
same,MIC,[6],≤ 0.06 µg/mL
same,inhibition at 1 µM,[7],< 1%
same,MIC,[8],0.5 µg/mL
same,inhibition at 10 µM,[9],45%
same,MIC,[10],1 µg/mL
same,MIC,[11],1 µg/mL
same,MIC,[12],≤ 0.06 µg/mL
same,MIC,[13],≤ 0.06 µg/mL
same,MIC,[14],0.125 µg/mL
same,MIC,[15],≤ 0.06 µg/mL
same,IC50,[16],39 nM
same,MIC,[17],1 µg/mL
same,MIC,[18],2 µg/mL
same,IC50,[19],> 10000 nM
same,IC20,[20],3100 nM
same,MIC,[21],1 µg/mL
same,IC50,[22],100 nM
same,MIC,[23],0.5 µg/mL
N#Cc1cc(OCC2(N)CC2)cc2c1CC(CNCCC1CN(c3ccc4c(n3)NC(=O)CO4)C(=O)O1)C2 (stereo unspecified),MIC,[1],≤ 0.06 µg/mL
same,MIC,[2],≤ 0.06 µg/mL
same,MIC,[3],≤ 0.06 µg/mL
same,MIC,[4],1 µg/mL
same,MIC,[5],≤ 0.06 µg/mL
same,MIC,[6],≤ 0.06 µg/mL
same,inhibition at 1 µM,[7],< 1%
same,MIC,[8],0.25 µg/mL
same,inhibition at 10 µM,[9],28%
same,MIC,[10],1 µg/mL
same,MIC,[11],0.5 µg/mL
same,MIC,[12],≤ 0.06 µg/mL
same,MIC,[13],≤ 0.06 µg/mL
same,MIC,[14],0.125 µg/mL
same,MIC,[15],≤ 0.06 µg/mL
same,IC50,[16],19 nM
same,MIC,[17],2 µg/mL
same,MIC,[18],1 µg/mL
same,IC50,[19],> 20000 nM
same,IC20,[20],6400 nM
same,MIC,[21],4 µg/mL
same,IC50,[22],35 nM
same,MIC,[23],1 µg/mL
N#Cc1cc(OC2CNC2)cc2c1CC(CNCCC1CN(c3ccc4c(n3)NC(=O)CO4)C(=O)O1)C2 (stereo unspecified),MIC,[1],0.5 µg/mL
same,MIC,[2],0.5 µg/mL
same,MIC,[3],0.5 µg/mL
same,MIC,[4],4 µg/mL
same,MIC,[5],≤ 0.06 µg/mL
same,MIC,[6],4 µg/mL
same,inhibition at 1 µM,[7],< 1%
same,MIC,[8],0.125 µg/mL
same,inhibition at 10 µM,[9],< 1%
same,MIC,[10],4 µg/mL
same,MIC,[11],0.5 µg/mL
same,MIC,[12],0.125 µg/mL
same,MIC,[13],≤ 0.06 µg/mL
same,MIC,[14],0.5 µg/mL
same,MIC,[15],≤ 0.06 µg/mL
same,IC50,[16],29 nM
same,MIC,[17],4 µg/mL
same,MIC,[18],1 µg/mL
same,IC50,[19],> 20000 nM
same,IC20,[20],> 10000 nM
same,MIC,[21],8 µg/mL
same,IC50,[22],51 nM
same,MIC,[23],8 µg/mL
